Test results reported in US20070021419A1, “2-Aminophenyl-4-phenylpyrimidines as kinase inhibitors” (Cyclacel Limited, priority 2003, published 2007).

Legend:
[1] = target: CDK1/cyclin B (Homo sapiens, UniProt P06493); assay: Kinase assay, radioactive phosphate incorporation, CDK1/cyclin B; assay type: biochemical; details: 100 μM ATP, 30° C.; read-out: Kinase inhibition IC50 CDK1/cyclin B
How it was run: (§1)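 Recombinant kinase complexes (2-4 μg) with polypeptide substrate were run in pH 7.4 β-glycerophosphate/MOPS buffer, started with 15 mM MgCl2 plus 100 μM ATP including [γ-^32P]-ATP, and incubated at 30° C. Substrate-incorporated ^32P was captured on filter plates, acid-washed and scintillation-counted. Compounds were diluted from DMSO stocks into 10% DMSO buffer.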

[2] = target: CDK2/cyclin A (Homo sapiens, UniProt P24941); assay: Kinase assay, radioactive phosphate incorporation, CDK2/cyclin A; assay type: biochemical; details: 100 μM ATP, 30° C.; read-out: Kinase inhibition IC50 CDK2/cyclin A
How it was run: as §1

[3] = target: CDK2/cyclin E (Homo sapiens, UniProt P24941); assay: Kinase assay, radioactive phosphate incorporation, CDK2/cyclin E; assay type: biochemical; details: 100 μM ATP, 30° C.; read-out: Kinase inhibition IC50 CDK2/cyclin E
How it was run: as §1

[4] = target: CDK4/cyclin D1 (Homo sapiens, UniProt P11802); assay: Kinase assay, radioactive phosphate incorporation, CDK4/cyclin D1; assay type: biochemical; details: 100 μM ATP, 30° C.; read-out: Kinase inhibition IC50 CDK4/cyclin D1
How it was run: as §1

[5] = target: CDK7/cyclin H (Homo sapiens, UniProt P50613); assay: Kinase assay, radioactive phosphate incorporation, CDK7/cyclin H; assay type: biochemical; details: 100 μM ATP, 30° C.; read-out: Kinase inhibition IC50 CDK7/cyclin H
How it was run: as §1

[6] = target: GSK3β (Homo sapiens, UniProt P49841); assay: Kinase assay, radioactive phosphate incorporation, GSK3β; assay type: biochemical; details: 100 μM ATP, 30° C.; read-out: Kinase inhibition IC50 GSK3β
How it was run: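 Inhibition is measured as reduced transfer of radioactive phosphate to a polypeptide substrate by 2-4 μg of recombinant enzyme. Mixtures with Mg/ATP (100 μM ATP, 15 mM MgCl2, [γ-32P]-ATP) in pH 7.4 MOPS-based buffer incubate at 30° C, are stopped on ice, filtered and counted.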

[7] = target: T1, Aurora-A (Homo sapiens, UniProt O14965); assay: Kinase assay, radioactive phosphate incorporation, Aurora-A; assay type: biochemical; details: 100 μM ATP, 30° C.; read-out: Kinase inhibition IC50 Aurora-A
T1 sequence (O14965 1-403): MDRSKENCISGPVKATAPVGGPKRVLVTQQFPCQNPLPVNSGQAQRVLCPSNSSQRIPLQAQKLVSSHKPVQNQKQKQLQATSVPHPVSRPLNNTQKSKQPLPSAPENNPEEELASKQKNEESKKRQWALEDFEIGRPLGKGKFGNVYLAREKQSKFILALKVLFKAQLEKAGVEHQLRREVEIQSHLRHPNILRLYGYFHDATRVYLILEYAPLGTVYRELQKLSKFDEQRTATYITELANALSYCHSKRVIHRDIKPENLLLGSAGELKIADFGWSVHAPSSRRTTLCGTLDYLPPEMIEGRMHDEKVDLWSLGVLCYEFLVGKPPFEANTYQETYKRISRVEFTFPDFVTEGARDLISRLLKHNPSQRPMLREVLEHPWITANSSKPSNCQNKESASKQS
Method: The compounds from the examples above were investigated for their ability to inhibit the enzymatic activity of various protein kinases. This was achieved by measurement of incorporation of radioactive phosphate from ATP into appropriate polypeptide substrates. Recombinant protein kinases and kinase complexes were produced or obtained commercially. Assays were performed using 96-well plates and appropriate assay buffers (typically 25 mM β-glycerophosphate, 20 mM MOPS, 5 MM EGTA, 1 mM DTT, 1 mM Na3VO3, pH 7.4), into which were added 2-4 μg of active enzyme with appropriate substrates. The reactions were initiated by addition of Mg/ATP mix (15 mM MgCl2+100 μM ATP with 30-50 kBq per well of [γ-^32P]-ATP) and mixtures incubated as required at 30° C. Reactions were stopped on ice, followed by filtration through p81 filterplates or GF/C filterplates (Whatman Polyfiltronics, Kent, UK). After washing 3 times with 75 mM aq orthophosphoric acid, plates were dried, scintillant added and incorporated radioactivity measured in a scintillation counter (TopCount, Packard Instruments, Pangbourne, Berks, UK). Compounds for kinase assay were made up as 10 mM stocks in DMSO and diluted into 10% DMSO in assay buffer.

[8] = target: CDK9/cyclin T1 (Homo sapiens, UniProt P50750); assay: Kinase assay, radioactive phosphate incorporation, CDK9/cyclin T1; assay type: biochemical; details: 100 μM ATP, 30° C.; read-out: Kinase inhibition IC50 CDK9/cyclin T1
How it was run: as §1

[9] = tested on: A549; assay: 72-h MTT cytotoxicity assay, A549; assay type: cell-based; details: Homo sapiens, read-out: 72-h MTT IC50 A549, A549 cell line
How it was run: (§2)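 Cells were seeded by doubling time and left overnight, then given a 1/3 DMSO dilution series in triplicate for 72 h at 37° C. MTT (5 mg/mL stock) was added for 4 h in the dark. Formazan was dissolved in DMSO for the read-out.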

[10] = tested on: HT29; assay: 72-h MTT cytotoxicity assay, HT29; assay type: cell-based; details: Homo sapiens, HT-29, read-out: 72-h MTT IC50 HT29, HT29 cell line
How it was run: as §2

[11] = tested on: Saos-2; assay: 72-h MTT cytotoxicity assay, Saos-2; assay type: cell-based; details: Homo sapiens, read-out: 72-h MTT IC50 Saos-2, Saos-2 cell line
How it was run: as §2

[12] = tested on: transformed human cell lines (A549, HT29, Saos-2); assay: 72-h MTT cytotoxicity assay, average of cell lines; assay type: cell-based; details: read-out: 72-h MTT IC50 Average, average of A549, HT29, Saos-2
How it was run: as §2

CDK7/cyclin H, sequence (P50613 whole entry, species assumed): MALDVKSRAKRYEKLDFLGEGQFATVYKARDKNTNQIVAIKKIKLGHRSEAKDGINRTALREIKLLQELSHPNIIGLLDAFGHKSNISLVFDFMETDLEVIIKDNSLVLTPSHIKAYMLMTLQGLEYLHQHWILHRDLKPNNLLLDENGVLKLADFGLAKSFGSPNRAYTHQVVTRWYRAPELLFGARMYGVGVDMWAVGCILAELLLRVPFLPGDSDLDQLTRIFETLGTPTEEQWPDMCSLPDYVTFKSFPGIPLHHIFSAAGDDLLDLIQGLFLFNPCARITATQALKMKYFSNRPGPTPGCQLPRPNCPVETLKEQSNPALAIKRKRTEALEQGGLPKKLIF
CDK7/cyclin H, sequence (P51946 whole entry partner, species assumed): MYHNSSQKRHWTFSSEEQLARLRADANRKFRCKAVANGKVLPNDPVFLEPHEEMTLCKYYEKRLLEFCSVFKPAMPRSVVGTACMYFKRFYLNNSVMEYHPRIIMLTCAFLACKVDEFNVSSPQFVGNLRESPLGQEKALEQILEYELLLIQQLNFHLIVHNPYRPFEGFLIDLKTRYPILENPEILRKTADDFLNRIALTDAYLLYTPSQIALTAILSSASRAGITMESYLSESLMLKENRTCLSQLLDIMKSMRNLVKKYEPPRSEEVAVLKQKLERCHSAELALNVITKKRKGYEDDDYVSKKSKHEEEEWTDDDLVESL
GSK3β, sequence (P49841 whole entry, species assumed): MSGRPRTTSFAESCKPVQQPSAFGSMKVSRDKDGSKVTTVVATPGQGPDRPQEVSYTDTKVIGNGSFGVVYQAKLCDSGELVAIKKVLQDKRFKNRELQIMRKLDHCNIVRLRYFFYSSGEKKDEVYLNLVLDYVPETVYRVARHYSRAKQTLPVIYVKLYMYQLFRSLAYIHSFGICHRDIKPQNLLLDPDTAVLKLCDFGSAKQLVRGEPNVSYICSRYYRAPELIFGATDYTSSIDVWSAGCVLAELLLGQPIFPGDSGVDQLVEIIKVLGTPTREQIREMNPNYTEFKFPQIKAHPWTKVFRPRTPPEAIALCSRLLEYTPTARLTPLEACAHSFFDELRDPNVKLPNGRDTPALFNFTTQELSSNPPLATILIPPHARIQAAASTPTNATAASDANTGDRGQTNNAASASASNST
CDK9/cyclin T1, sequence (P50750 whole entry, species assumed): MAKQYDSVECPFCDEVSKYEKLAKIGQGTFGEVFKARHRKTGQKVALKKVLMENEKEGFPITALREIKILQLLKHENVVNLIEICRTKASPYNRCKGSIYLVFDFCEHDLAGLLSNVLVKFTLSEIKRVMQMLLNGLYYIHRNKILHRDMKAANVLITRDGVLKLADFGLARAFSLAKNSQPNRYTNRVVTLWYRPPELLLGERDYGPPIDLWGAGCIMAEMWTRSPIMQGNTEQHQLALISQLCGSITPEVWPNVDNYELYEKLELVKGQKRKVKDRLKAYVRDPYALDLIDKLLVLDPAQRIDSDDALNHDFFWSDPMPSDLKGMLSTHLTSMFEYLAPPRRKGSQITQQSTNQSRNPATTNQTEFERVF
CDK9/cyclin T1, sequence (O60563 whole entry partner, species assumed): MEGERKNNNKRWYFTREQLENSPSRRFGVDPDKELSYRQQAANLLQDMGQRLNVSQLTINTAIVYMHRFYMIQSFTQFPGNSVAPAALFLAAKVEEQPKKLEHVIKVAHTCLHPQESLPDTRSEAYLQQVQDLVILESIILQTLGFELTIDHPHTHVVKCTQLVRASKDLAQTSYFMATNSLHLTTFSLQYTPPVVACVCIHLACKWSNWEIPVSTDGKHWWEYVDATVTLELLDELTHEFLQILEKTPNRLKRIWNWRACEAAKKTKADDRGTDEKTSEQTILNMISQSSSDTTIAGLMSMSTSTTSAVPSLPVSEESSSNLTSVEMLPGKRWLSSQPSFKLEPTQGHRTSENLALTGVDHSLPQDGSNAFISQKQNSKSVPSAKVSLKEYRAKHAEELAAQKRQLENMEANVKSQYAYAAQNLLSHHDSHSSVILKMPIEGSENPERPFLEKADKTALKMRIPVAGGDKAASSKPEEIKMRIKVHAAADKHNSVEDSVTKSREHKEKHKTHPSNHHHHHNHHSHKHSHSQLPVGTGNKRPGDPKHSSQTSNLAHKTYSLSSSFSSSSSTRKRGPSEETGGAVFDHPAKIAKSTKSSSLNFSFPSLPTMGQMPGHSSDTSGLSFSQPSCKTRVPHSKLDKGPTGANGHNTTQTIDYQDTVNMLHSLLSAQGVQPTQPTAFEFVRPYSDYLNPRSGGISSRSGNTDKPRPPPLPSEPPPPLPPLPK
CDK4/cyclin D1, sequence (P11802 whole entry, species assumed): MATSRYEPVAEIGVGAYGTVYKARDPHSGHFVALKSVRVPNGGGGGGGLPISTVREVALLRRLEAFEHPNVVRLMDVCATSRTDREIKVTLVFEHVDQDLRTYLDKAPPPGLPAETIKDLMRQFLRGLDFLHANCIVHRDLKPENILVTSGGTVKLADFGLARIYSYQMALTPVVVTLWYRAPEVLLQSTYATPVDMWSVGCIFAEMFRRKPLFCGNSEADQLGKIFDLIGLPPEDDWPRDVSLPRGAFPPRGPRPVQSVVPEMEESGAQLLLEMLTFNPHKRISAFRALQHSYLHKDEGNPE
CDK4/cyclin D1, sequence (P24385 whole entry partner, species assumed): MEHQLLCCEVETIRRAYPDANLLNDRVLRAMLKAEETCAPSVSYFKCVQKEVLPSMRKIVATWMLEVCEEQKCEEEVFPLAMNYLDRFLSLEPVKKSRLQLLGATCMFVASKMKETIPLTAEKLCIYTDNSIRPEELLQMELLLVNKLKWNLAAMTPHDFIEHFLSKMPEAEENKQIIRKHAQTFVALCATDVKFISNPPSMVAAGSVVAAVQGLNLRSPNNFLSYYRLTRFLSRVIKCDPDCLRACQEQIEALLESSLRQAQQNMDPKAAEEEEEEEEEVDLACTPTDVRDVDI
CDK1/cyclin B, sequence (P06493 whole entry, species assumed): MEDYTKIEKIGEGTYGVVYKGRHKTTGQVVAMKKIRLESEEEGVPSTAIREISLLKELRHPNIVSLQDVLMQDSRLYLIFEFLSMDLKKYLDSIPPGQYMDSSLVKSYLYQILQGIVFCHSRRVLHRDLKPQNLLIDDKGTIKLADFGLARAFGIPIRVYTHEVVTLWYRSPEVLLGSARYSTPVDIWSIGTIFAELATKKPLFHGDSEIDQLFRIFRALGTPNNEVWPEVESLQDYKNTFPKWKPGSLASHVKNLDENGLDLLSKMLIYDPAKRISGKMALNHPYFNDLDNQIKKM
CDK1/cyclin B, sequence (P14635 whole entry partner, species assumed): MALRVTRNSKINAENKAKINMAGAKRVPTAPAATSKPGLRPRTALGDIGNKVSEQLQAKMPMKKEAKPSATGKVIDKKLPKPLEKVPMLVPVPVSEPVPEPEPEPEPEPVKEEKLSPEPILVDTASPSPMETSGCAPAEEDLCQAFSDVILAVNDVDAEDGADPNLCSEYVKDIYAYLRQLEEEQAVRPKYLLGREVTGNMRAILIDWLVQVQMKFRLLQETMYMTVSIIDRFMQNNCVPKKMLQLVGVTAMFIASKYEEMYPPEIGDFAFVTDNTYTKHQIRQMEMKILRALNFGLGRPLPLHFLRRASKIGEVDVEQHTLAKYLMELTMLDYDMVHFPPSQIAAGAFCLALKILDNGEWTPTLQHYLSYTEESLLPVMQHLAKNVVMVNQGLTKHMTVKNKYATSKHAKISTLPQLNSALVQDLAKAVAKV

SMILES | IC50 [1] [nM] | IC50 [2] [nM] | IC50 [3] [nM] | IC50 [4] [nM] | IC50 [5] [nM] | IC50 [6] [nM] | IC50 [7] [nM] | IC50 [8] [nM] | IC50 [9] [nM] | IC50 [10] [nM] | IC50 [11] [nM] | IC50 [12] [nM]
OCc1cccc(Nc2nccc(-c3cccc(O)c3)n2)c1 [Compound 72, 3-[2-(3-Hydroxymethyl-phenylamino)-pyrimidin-4-yl]-phenol] | 150 | 150 | 120 | 280 | 1700 | 30 | 40 |  |  |  |  | 
COc1ccc(-c2ccnc(Nc3cccc(O)c3)n2)cc1 [Compound 76, 3-[4-(4-Methoxy-phenyl)-pyrimidin-2-ylamino]-phenol] | 1 | < 1 | 10 | 10 | 120 | 10 | 50 | < 1 |  |  |  | 
CN(C)Cc1cccc(-c2ccnc(Nc3cccc(O)c3)n2)c1 [Compound 80, 3-[4-(3-Dimethylaminomethyl-phenyl)-pyrimidin-2-ylamino]-phenol] | 690 | 590 | 70 |  | 720 | 830 | 1500 | 10 | 860 | 1600 | 4000 | 2200 ± 1600
CN(C)Cc1cccc(-c2ccnc(Nc3ccc(O)cc3)n2)c1 [Compound 81, 4-[4-(3-Dimethylaminomethyl-phenyl)-pyrimidin-2-ylamino]-phenol] | 1300 | 500 | 110 |  | 1400 | 1300 | 1000 | 20 | 1500 | 1200 | 5000 | 2600 ± 2100
CN(C)Cc1cccc(-c2ccnc(Nc3ccc(N4CCOCC4)cc3)n2)c1 [Compound 82, [4-(3-Dimethylaminomethyl-phenyl)-pyrimidin-2-yl]-(4-morpholin-4-yl-phenyl)-amine] | 1100 | 1500 | 660 | 4600 | 2900 | 2300 | 400 | 330 | 6200 | 4500 | 6600 | 5800 ± 1100
COc1ccc(Nc2nccc(-c3cccc(CN(C)C)c3)n2)cn1 [Compound 83, [4-(3-Dimethylaminomethyl-phenyl)-pyrimidin-2-yl]-(6-methoxy-pyridin-3-yl)-amine] | 380 | 650 | 190 |  | 990 | 150 | 7800 | 20 | 1400 | 910 | 1600 | 1300 ± 400
CCN(CC)Cc1cccc(-c2ccnc(Nc3cccc([N+](=O)[O-])c3)n2)c1 [Compound 84, [4-(3-Diethylaminomethyl-phenyl)-pyrimidin-2-yl]-(3-nitro-phenyl)-amine] | 20 | 20 | 60 | 3200 | 90 | 20 | 570 | 4 |  |  |  | 
